Laboratory results: the supplement of paper PMC10702517
± gives the standard deviation.

Experiment: chemical recovery by SPE of plasma after PDMS sampling; higher = better extraction
Settings: pooled human plasma; extraction method: HLB SPE of plasma after PES; equilibration time (d): 1
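Note: over 400 spiked chemicals quantified by LC-HRMS or GC-HRMS via internal standard calibration, recovery relative to spike mix added to unspiked plasma extract to correct matrix effects.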

Row | SMILES | chemical recovery by SPE of plasma
1 | CCCCc1oc2ccccc2c1C(=O)c1cc(I)c(OCCN(CC)CC)c(I)c1 [Amiodarone] | 0.357 ± 0.17%
2 | CN(C)C(=O)Nc1ccc(Cl)c(Cl)c1 [Diuron] | 8.44 ± 0.83%
3 | O=C(O)c1ccc(Cl)cc1Cl [2,4-Dichlorobenzoic acid] | 47.5 ± 9.1%
4 | Oc1ccc(Cl)cc1Cc1cc(Cl)ccc1O [Dichlorophen] | 53.2 ± 21%
5 | CO/C=C(/C(=O)OC)c1ccccc1COc1cccc(C(F)(F)F)n1 [Picoxystrobin] | 1.61 ± 0.23%
6 | CC(=O)[C@@]1(O)CC[C@H]2[C@@H]3C[C@H](C)C4=CC(=O)C=C[C@]4(C)[C@@]3(F)[C@@H](O)C[C@@]21C [Fluorometholone] | 45.1 ± 3.6%
7 | CNC1=C(c2cccc(C(F)(F)F)c2)C(=O)C(c2ccccc2)O1 (centres undefined) [Flurtamone] | 15.5 ± 2.1%
8 | Cc1cc(C2CCCCC2)n(O)c(=O)c1 [Ciclopirox] | 2.83 ± 1.3%
9 | c1ccc2sc(NC3CCCCC3)nc2c1 [N-Cyclohexyl-2-benzothiazole-amine] | 0.591 ± 0.065%
10 | C/C(=N\C#N)N(C)Cc1ccc(Cl)nc1 [Acetamiprid] | 46.9 ± 3.9%
11 | c1ccc(-c2ccc(C(c3ccccc3)n3ccnc3)cc2)cc1 (centres undefined) [Bifonazol] | 0.932 ± 0.2%
12 | ClC1=C(Cl)C2(Cl)C3C4C=CC(C4)C3C1(Cl)C2(Cl)Cl (centres undefined) [Aldrin] | 1.3 ± 0.86%
13 | c1ccc(-c2ccccc2-c2ccccc2)cc1 [o-Terphenyl] | 2.44 ± 1.2%
14 | Cc1ccc(NC(=O)N(C)C)cc1Cl [Chlorotoluron] | 10.3 ± 0.88%
15 | CCNc1nc(NC(C)(C)C)nc(SC)n1 [Terbutryn] | 1.3 ± 0.11%
16 | CCOC(=O)C1=C(C)NC(C)=C(C(=O)OC)C1c1cccc([N+](=O)[O-])c1 (centres undefined) [Nitrendipin] | 7.61 ± 0.89%
17 | COCC(=O)N(c1c(C)cccc1C)C(C)C(=O)OC (centres undefined) [Metalaxyl] | 5.41 ± 0.46%
18 | O=P(c1ccccc1)(c1ccccc1)c1ccccc1 [Triphenylphosphine oxide] | 8.28 ± 1.2%
19 | C=CCOC(Cn1ccnc1)c1ccc(Cl)cc1Cl (centres undefined) [Imazalil] | 0.376 ± 0.081%
20 | O=C(Nc1ccccc1-c1ccc(Cl)cc1)c1cccnc1Cl [Boscalid] | 4.82 ± 0.75%
21 | Clc1ccc(Cl)c(-c2cc(Cl)c(Cl)cc2Cl)c1 [PCB101] | 1.75 ± 1.3%
22 | Clc1ccc2c(c1)CCc1cccnc1C2=C1CCNCC1 [Desloratadine] | 3.67 ± 0.83%
23 | Cc1cc(C2CC2)nc(Nc2ccccc2)n1 [Cyprodinil] | 0.89 ± 0.78%

Row | SMILES | chemical recovery by SPE of plasma
24 | CC1CCc2cc(F)cc3c(=O)c(C(=O)O)cn1c23 (centres undefined) [Flumequine] | 43.1 ± 2.7%
25 | CCCCC(C#N)(Cn1cncn1)c1ccc(Cl)cc1 (centres undefined) [Myclobutanil] | 1.71 ± 0.26%
26 | CC(=O)CCCCn1c(=O)c2c(ncn2C)n(C)c1=O [Pentoxifylline] | 37.9 ± 5.9%
27 | COCC(C)N(C(=O)CCl)c1c(C)csc1C (centres undefined) [Dimethenamid] | 1.45 ± 0.053%
28 | Cc1cc(=O)oc2cc(N)ccc12 [7-Amino-4-methylcoumarin] | 39.4 ± 4.9%
29 | COCCN(C(=O)CCl)c1c(C)cccc1C [Dimethachlor] | 2.27 ± 0.1%
30 | Oc1ccc(Cl)cc1Cc1ccccc1 [Chlorophene] | 36.9 ± 6.1%
31 | COC[P+](c1ccccc1)(c1ccccc1)c1ccccc1 [(Methoxymethyl)triphenylphosphonium] | 50.8 ± 5.7%
32 | Cc1cccc(C)c1N(Cn1cccn1)C(=O)C(=O)O [Metazachlor OA] | 56.9 ± 8.4%
33 | CC(=O)c1cc2c(cc1C)C(C)(C)C(C)CC2(C)C (centres undefined) [Tonalide] | 0.526 ± 0.91%
34 | Cc1cc(Cc2ccc(N)c(C)c2)ccc1N [4,4'-Methylene-bis(2-methyl aniline)] | 4.29 ± 0.41%
35 | Cc1ccc(S(N)(=O)=O)cc1 [p-Toluenesulfonamide] | 51.8 ± 5.5%
36 | C[C@]12CCC(=O)C=C1[C@@H]1C[C@@H]1[C@H]1[C@@H]3[C@@H]4C[C@@H]4[C@@]4(CCC(=O)O4)[C@@]3(C)CC[C@@H]12 [Drospirenone] | 3.88 ± 0.83%
37 | c1ccc(/N=N/c2ccccc2)cc1 [Azobenzene] | 0.184 ± 0.32%
38 | CO/C=C(/C(=O)O)c1ccccc1Oc1cc(Oc2ccccc2C#N)ncn1 [Azoxystrobin acid] | 46.8 ± 4.8%
39 | Nc1ccc(-c2ccc(N)c(Cl)c2)cc1Cl [3,3'-Dichlorobenzidine] | 16.1 ± 5.5%
40 | Clc1cc(Cl)c(-c2cc(Cl)c(Cl)cc2Cl)cc1Cl [PCB153] | 4.72 ± 3%
41 | C#C[C@]1(O)C=C[C@H]2[C@@H]3CCC4=CC(=O)CC[C@@H]4[C@H]3CC[C@@]21CC [Gestoden] | 22.4 ± 3%
42 | c1ccc2c(c1)[nH]c1cnccc12 [Norharmane] | 3.67 ± 0.43%
43 | O=C1CCCC=CCCCCCCCCCC1 [Velvione] | 1.02 ± 7.1%
44 | Cc1c(C(C)C)c(=O)n(-c2ccccc2)n1C [Propyphenazone] | 4.36 ± 0.18%
45 | Clc1cc(Cl)c(-c2c(Cl)ccc(Cl)c2Cl)cc1Cl [PCB149] | 3.35 ± 2.2%
46 | CCCOP(=O)(OCCC)OCCC [Tripropyl phosphate] | 1.52 ± 1%

Same assay, conditions: pooled human plasma; extraction method: HLB SPE of plasma after PES; equilibration time (d): 3

Row | SMILES | chemical recovery by SPE of plasma
47 | CCCCc1oc2ccccc2c1C(=O)c1cc(I)c(OCCN(CC)CC)c(I)c1 [Amiodarone] | 0.127 ± 0.05%
48 | CN(C)C(=O)Nc1ccc(Cl)c(Cl)c1 [Diuron] | 7.52 ± 0.91%
49 | O=C(O)c1ccc(Cl)cc1Cl [2,4-Dichlorobenzoic acid] | 46.9 ± 8.3%
50 | CO/C=C(/C(=O)OC)c1ccccc1COc1cccc(C(F)(F)F)n1 [Picoxystrobin] | 2.06 ± 0.34%
51 | CCCCC(=O)O[C@]1(C(=O)CO)[C@@H](C)C[C@H]2[C@@H]3CCC4=CC(=O)C=C[C@]4(C)[C@@]3(F)[C@@H](O)C[C@@]21C [Betamethasone-17-valerate] | 26.8 ± 4.2%
52 | CC(=O)[C@@]1(O)CC[C@H]2[C@@H]3C[C@H](C)C4=CC(=O)C=C[C@]4(C)[C@@]3(F)[C@@H](O)C[C@@]21C [Fluorometholone] | 48.3 ± 3.2%
53 | CNC1=C(c2cccc(C(F)(F)F)c2)C(=O)C(c2ccccc2)O1 (centres undefined) [Flurtamone] | 11 ± 1.4%
54 | Cc1cc(C2CCCCC2)n(O)c(=O)c1 [Ciclopirox] | 0.638 ± 1.1%
55 | c1ccc2sc(NC3CCCCC3)nc2c1 [N-Cyclohexyl-2-benzothiazole-amine] | 0.595 ± 0.073%
56 | C/C(=N\C#N)N(C)Cc1ccc(Cl)nc1 [Acetamiprid] | 42.3 ± 4.8%
57 | c1ccc(-c2ccc(C(c3ccccc3)n3ccnc3)cc2)cc1 (centres undefined) [Bifonazol] | 0.479 ± 0.14%
58 | ClC1=C(Cl)C2(Cl)C3C4C=CC(C4)C3C1(Cl)C2(Cl)Cl (centres undefined) [Aldrin] | 1.34 ± 0.14%
59 | c1ccc(-c2ccccc2-c2ccccc2)cc1 [o-Terphenyl] | 2.46 ± 0.63%
60 | Cc1ccc(NC(=O)N(C)C)cc1Cl [Chlorotoluron] | 9.6 ± 1.2%
61 | CCNc1nc(NC(C)(C)C)nc(SC)n1 [Terbutryn] | 1.01 ± 0.25%
62 | CCOC(=O)C1=C(C)NC(C)=C(C(=O)OC)C1c1cccc([N+](=O)[O-])c1 (centres undefined) [Nitrendipin] | 5.18 ± 0.19%
63 | COCC(=O)N(c1c(C)cccc1C)C(C)C(=O)OC (centres undefined) [Metalaxyl] | 5.16 ± 0.64%
64 | O=P(c1ccccc1)(c1ccccc1)c1ccccc1 [Triphenylphosphine oxide] | 8.53 ± 0.92%
65 | C=CCOC(Cn1ccnc1)c1ccc(Cl)cc1Cl (centres undefined) [Imazalil] | 0.334 ± 0.2%
66 | O=C(Nc1ccccc1-c1ccc(Cl)cc1)c1cccnc1Cl [Boscalid] | 5.2 ± 0.48%
67 | Clc1ccc(Cl)c(-c2cc(Cl)c(Cl)cc2Cl)c1 [PCB101] | 1.62 ± 0.22%
68 | C[C@H]1C[C@H]2[C@@H]3CCC4=CC(=O)C=C[C@]4(C)[C@@]3(F)[C@@H](O)C[C@]2(C)[C@@]1(O)C(=O)CCl [Clobetasol] | 53.2 ± 3.3%
69 | CC(CCl)OP(=O)(OC(C)CCl)OC(C)CCl (centres undefined) [Tris(1-chloro-2-propyl)phosphate] | 1.7 ± 2%
70 | Clc1ccc2c(c1)CCc1cccnc1C2=C1CCNCC1 [Desloratadine] | 4.32 ± 0.44%

Row | SMILES | chemical recovery by SPE of plasma
71 | Cc1cc(C2CC2)nc(Nc2ccccc2)n1 [Cyprodinil] | 0.733 ± 0.65%
72 | CC1CCc2cc(F)cc3c(=O)c(C(=O)O)cn1c23 (centres undefined) [Flumequine] | 43.8 ± 3.9%
73 | CCCCC(C#N)(Cn1cncn1)c1ccc(Cl)cc1 (centres undefined) [Myclobutanil] | 1.32 ± 0.3%
74 | CCCCc1c(C)nc(NCC)nc1OS(=O)(=O)N(C)C [Bupirimate] | 0.147 ± 0.26%
75 | CC(=O)CCCCn1c(=O)c2c(ncn2C)n(C)c1=O [Pentoxifylline] | 33.6 ± 3.5%
76 | COCC(C)N(C(=O)CCl)c1c(C)csc1C (centres undefined) [Dimethenamid] | 2.08 ± 0.36%
77 | Cc1cc(=O)oc2cc(N)ccc12 [7-Amino-4-methylcoumarin] | 34.9 ± 3.5%
78 | COCCN(C(=O)CCl)c1c(C)cccc1C [Dimethachlor] | 2.96 ± 0.38%
79 | Oc1ccc(Cl)cc1Cc1ccccc1 [Chlorophene] | 29.2 ± 5.9%
80 | COC[P+](c1ccccc1)(c1ccccc1)c1ccccc1 [(Methoxymethyl)triphenylphosphonium] | 50.4 ± 4.2%
81 | Cc1cccc(C)c1N(Cn1cccn1)C(=O)C(=O)O [Metazachlor OA] | 63.4 ± 2.8%
82 | Cc1cc(Cc2ccc(N)c(C)c2)ccc1N [4,4'-Methylene-bis(2-methyl aniline)] | 4.74 ± 0.39%
83 | Cc1ccc(S(N)(=O)=O)cc1 [p-Toluenesulfonamide] | 55.4 ± 4.7%
84 | C[C@]12CCC(=O)C=C1[C@@H]1C[C@@H]1[C@H]1[C@@H]3[C@@H]4C[C@@H]4[C@@]4(CCC(=O)O4)[C@@]3(C)CC[C@@H]12 [Drospirenone] | 2.16 ± 0.41%
85 | c1ccc(/N=N/c2ccccc2)cc1 [Azobenzene] | 0.401 ± 0.35%
86 | CO/C=C(/C(=O)O)c1ccccc1Oc1cc(Oc2ccccc2C#N)ncn1 [Azoxystrobin acid] | 50.4 ± 2%
87 | Nc1ccc(-c2ccc(N)c(Cl)c2)cc1Cl [3,3'-Dichlorobenzidine] | 17.3 ± 2%
88 | Clc1cc(Cl)c(-c2cc(Cl)c(Cl)cc2Cl)cc1Cl [PCB153] | 2.08 ± 0.28%
89 | C#C[C@]1(O)C=C[C@H]2[C@@H]3CCC4=CC(=O)CC[C@@H]4[C@H]3CC[C@@]21CC [Gestoden] | 17.6 ± 1%
90 | c1ccc2c(c1)[nH]c1cnccc12 [Norharmane] | 2.75 ± 0.47%
91 | Cc1c(C(C)C)c(=O)n(-c2ccccc2)n1C [Propyphenazone] | 3.89 ± 0.79%
92 | Clc1cc(Cl)c(-c2c(Cl)ccc(Cl)c2Cl)cc1Cl [PCB149] | 1.54 ± 0.15%
93 | CCCOP(=O)(OCCC)OCCC [Tripropyl phosphate] | 1.74 ± 0.42%

Same assay, conditions: pooled human plasma; extraction method: HLB SPE of plasma after PES; equilibration time (d): 6

Row | SMILES | chemical recovery by SPE of plasma
94 | CN(C)C(=O)Nc1ccc(Cl)c(Cl)c1 [Diuron] | 4.83 ± 0.33%
95 | O=C(O)c1ccc(Cl)cc1Cl [2,4-Dichlorobenzoic acid] | 47 ± 2.5%
96 | CO/C=C(/C(=O)OC)c1ccccc1COc1cccc(C(F)(F)F)n1 [Picoxystrobin] | 0.862 ± 0.75%
97 | CCCCC(=O)O[C@]1(C(=O)CO)[C@@H](C)C[C@H]2[C@@H]3CCC4=CC(=O)C=C[C@]4(C)[C@@]3(F)[C@@H](O)C[C@@]21C [Betamethasone-17-valerate] | 19.1 ± 4.2%
98 | CC(=O)[C@@]1(O)CC[C@H]2[C@@H]3C[C@H](C)C4=CC(=O)C=C[C@]4(C)[C@@]3(F)[C@@H](O)C[C@@]21C [Fluorometholone] | 40.3 ± 1.6%
99 | CNC1=C(c2cccc(C(F)(F)F)c2)C(=O)C(c2ccccc2)O1 (centres undefined) [Flurtamone] | 6.82 ± 0.47%
100 | Cc1cc(C2CCCCC2)n(O)c(=O)c1 [Ciclopirox] | 0.232 ± 0.4%
101 | c1ccc2sc(NC3CCCCC3)nc2c1 [N-Cyclohexyl-2-benzothiazole-amine] | 0.297 ± 0.037%
102 | C/C(=N\C#N)N(C)Cc1ccc(Cl)nc1 [Acetamiprid] | 33.6 ± 4%
103 | c1ccc(-c2ccc(C(c3ccccc3)n3ccnc3)cc2)cc1 (centres undefined) [Bifonazol] | 0.0513 ± 0.051%
104 | ClC1=C(Cl)C2(Cl)C3C4C=CC(C4)C3C1(Cl)C2(Cl)Cl (centres undefined) [Aldrin] | 1.4 ± 0.28%
